# Laboratory results taken from patent publication US8513280B2, “Use of epothilones in the treatment of neuronal connectivity defects such as schizophrenia and autism” (Institut National de la Sante et de la Recherche Medicale, priority 2004, dated 2013).
# “And” between values parts separate entries of the source, which are not always exact repeats. Equal entries are not always repeated.
# How the values were obtained:
# Type in all cases: in vivo, mouse
# STOP KO mice [1] = assay: Pup survival in progeny of STOP KO mothers
# Procedure: The epothilone treatment has been then tested whether it could induce pup survival in STOP KO mothers. Nine STOP KO mice treated with Epothilone D at 0.3 mg/kg/week and eight untreated females were mated the pups survival were analysed after delivery.
# STOP deficient mice [2] = assay: Spontaneous activity, video-recorded during 3 h, STOP KO mice
# Procedure: (§1) Spontaneous activity (male and female) was recorded and quantified during a three hours period of time, as in Andrieux et al., Genes Dev. 2002 Sep. 15; 16(18):2350-64. Five activities were considered: feeding, remaining still without sleeping, walking, grooming and sleeping. For each activity, the total time spent doing the activity and the number of distinct sequences of activity, were determined.
# (§2) In a first series of experiments, epothilone D was injected intra-peritoneally, once a week, at either 0.3 mg/kg/week or 3 mg/kg/week for at least 8 weeks. The drug was diluted at a final concentration of 0.3 mg/ml in water, from a 50 mg/ml stock solution in DMSO.
# (§3) In a second series of experiments, epothilone D was injected intra-peritoneally, in two injections a week, at a total dose of 4 mg/kg/week, for 8 weeks. The drug was diluted at a final concentration of 0.2 mg/ml in water, from a 50 mg/ml stock solution in DMSO.
# (§4) Among 61 STOP KO mice, 28 were treated with placebo injections, 33 with 3 mg/kg/week of epothilone D. Among 62 WT mice, 29 were treated with placebo injections, 33 with 3 mg/kg/week of epothilone D.
# (§5) In another series of experiments, among 19 STOP KO mice, 9 were treated with placebo injections, 10 with 4 mg/kg/week epothilone D. Among 20 WT mice, 10 were treated with placebo injections and 10 with 4 mg/kg/week epothilone D.
# WT mice [3] = assay: Spontaneous activity, video-recorded during 3 h, WT mice
# Procedure: as §1, §2, §3, §4, §5
# STOP deficient mice [4] = assay: Maternal behaviour: nest building and pup retrieving, STOP KO mice
# Procedure: (§6) For maternal behaviour, STOP deficient or control wild type (WT) female mice, nulliparous, 8 weeks old, were treated either with a placebo (carrier alone), or with epothilone D.
# (§7) The maternal behaviour of treated and untreated mice was monitored by assaying the mouse ability to build a nest and to retrieve pups
# (§8) For assessment of nesting capacity, the tested mouse was placed in a 240×240×120 mm cage containing litter and provided with a Kleenex tissue folded in 4 (final dimensions, 100×100 mm). After 60 hours, the mouse ability to use the paper and to build a nest was scored as follows:
# (§9) Tissue use score: 0, the Kleenex tissue remained folded; 1, the tissue has been unfolded but not shredded; 2 the tissue was shredded.
# (§10) Nest building score: 0, no attempt to build a nest; 1, primitive flat nest of uncontrolled shape; 2, true nest, the paper is mixed with litter to form a circular nest, less than 80 mm in diameter.
# (§11) For assessment of retrieving: following the nest building test, mice were trained and assessed for pup retrieving as in Andrieux et al. (Genes Dev. 2002 Sep. 15; 16(18):2350-64. Retrieving was scored as the number of pups retrieved (0 to 3).
# Finally a global score for nesting and retrieving capacity (TNR) was determined for each mouse, by adding the tissue use, nest building, and pup retrieving scores (maximal score for TNR is 7).
# The maternal behaviour of untreated and treated mice was monitored by assaying mouse ability to build a nest and to retrieve pups. Experiments were performed at 3 concentrations of epothilone D (4 mg/kg/week, 3 mg/kg/week and 0.3 mg/kg/week).
# Among 69 STO KO mice, […] were treated with placebo injections, 17 were treated with 3 mg/kg/week of epothilone, and 18 were treated with 0.3 mg/kg/week of epothilone. Among 34 WT mice, 17 were treated with placebo injections, and 17 were treated with 3 mg/kg/week of epothilone.
# In another series of experiments, among 19 STOP KO mice, 9 were treated with placebo injections, 10 with 4 mg/kg/week epothilone D and as control, among 20 WT mice, 10 were treated with placebo injections and 10 with 4 mg/kg/week epothilone D.
# WT mice [5] = assay: Maternal behaviour: nest building and pup retrieving, WT mice; settings: example II
# Procedure: as §6, §7, §8, §9, §10, §11
# Finally a global score for nesting and retrieving capacity (TNR) was determined for each mouse, by adding the tissue use, nest building, and pup retrieving scores (maximal score for TNR is 7). […]
# STOP KO mice [6] = assay: Synaptic vesicle density in CA1 hippocampal synapses (electron micrographs), STOP KO mice
# Procedure: It reports the quantitative analysis of synaptic vesicle density in CA1 hippocampal synapses of mice treated or not with epothilone D 3 mg/kg/week or with neuroleptics (0.5 mg/kg/day haloperidol and 5 mg/kg/day chlorpromazine, in drinking water, from birth to adulthood). Synaptic vesicle density, calculated as the ratio of the number of vesicle/nerve terminal surface (after subtraction of the surface area occupied by mitochondria). Results (means+/−s.e.m.) are shown for pooled 75 measurements from five wild type mice and from five STOP KO mice either untreated or treated with Epothilone D. For neuroleptic control experiments, results (means+/−s.e.m.) are shown for pooled 75 measurements from three STOP KO mice either untreated or treated with neuroleptics.
# Hippocampus was dissected out from transcardially fixed mice, sliced and embedded in Epon. To determine the surface density of synaptic vesicles, a total of cross sections of 75 synapses made of hippocampal CA1 region were photographed randomly, and the numbers of synaptic vesicles in each nerve pre-terminal were counted on the electron micrographs. Synaptic vesicles density of STOP KO mice following long term neuroleptic treatment (0.5 mg/kg/day haloperidol and 5 mg/kg/day chlorpromazine, in drinking water, from birth to adulthood) was also examined using the same protocol. […]
# [7] = STOP deficient mice, 3 mg/kg/week i.p., FIG. 1-B
# [8] = STOP deficient mice, 4 mg/kg/week, 8 weeks, FIG. 2
# [9] = STOP KO mice, 0.3 mg/kg/week i.p., FIG. 3
# [10] = STOP KO mice, 3 mg/kg/week i.p., FIG. 3
# [11] = STOP deficient mice, 4 mg/kg/week, FIG. 4
smiles,measurement,setting,value
C/C1=C/CC(/C(C)=C/c2csc(C)n2)OC(=O)CC(O)C(C)(C)C(=O)C(C)C(O)C(C)CCC1 (stereo not shown) [epothilone D],STOP KO females with pup survival,"STOP KO mice [1]; 0.3 mg/kg/week, nine treated STOP KO females mated, no pup survival without treatment",three out of the nine
same,ratio of surviving pups to newborns,"STOP KO mice [1]; 0.3 mg/kg/week, per mouse, the three STOP KO females with surviving pups",5/6 (2×) and 6/6
same,"maternal behaviour, compatible with pup survival","STOP KO mice [1]; STOP deficient female mice, summary statement, dose not stated",re-established
same,total number of shifts between activities,"STOP deficient mice [2]; STOP KO mice, summary statement, dose not stated",decrease
same,total time spent grooming,"STOP deficient mice [2]; STOP deficient mice, 3 mg/kg/week i.p. once a week, at least 8 weeks, vs placebo, FIG. 1-A",decrease
same,number of remaining still while awake sequences,STOP deficient mice [2]; [7],reducing
same,number of walking sequences,STOP deficient mice [2]; [7],reducing
same,total time spent sleeping,"STOP deficient mice [2]; STOP deficient mice, 3 mg/kg/week i.p., vs placebo, FIG. 1-A",increase
same,total number of shifts between activities,"STOP deficient mice [2]; STOP deficient mice, 3 mg/kg/week i.p., vs placebo, FIG. 1-B",decreased
same,total number of shifts between activities,"STOP deficient mice [2]; STOP deficient mice, 4 mg/kg/week i.p. in two injections a week, 8 weeks, FIG. 2",remarkable decrease
same,number of feeding sequences,STOP deficient mice [2]; [8],remained unaffected
same,number of grooming sequences,STOP deficient mice [2]; [8],decrease
same,number of sleeping sequences,STOP deficient mice [2]; [8],remained unaffected
same,number of walking sequences,STOP deficient mice [2]; [8],decrease
same,total time spent grooming,STOP deficient mice [2]; [8],highly significantly diminished
same,time spent sleeping,"STOP deficient mice [2]; STOP deficient mice, 4 mg/kg/week, 8 weeks, trend (tended to increase), FIG. 2",increase
same,time spent remaining still without sleeping,"STOP deficient mice [2]; STOP deficient mice, 4 mg/kg/week, 8 weeks, trend, FIG. 2",tended to diminish
same,number of sequences of stillness,"WT mice [3]; 4 mg/kg/week, FIG. 2, said to be compatible with random fluctuations",significant increase
same,effect on the recorded activities,WT mice [3]; example I (3 and 4 mg/kg/week),no significant effect
same,"TNR score (global score, maximal 7)",STOP deficient mice [4]; [9],highly significant increase
same,nest building score (0-2),STOP deficient mice [4]; [9],improved
same,"paper use score (tissue use score, 0-2)",STOP deficient mice [4]; [9],improved
same,pup retrieving score (0-3),STOP deficient mice [4]; [9],improved
same,"TNR score (global score, maximal 7)",STOP deficient mice [4]; [10],highly significant increase
same,nest building score (0-2),STOP deficient mice [4]; [10],improved
same,"paper use score (tissue use score, 0-2)",STOP deficient mice [4]; [10],improved
same,pup retrieving score (0-3),STOP deficient mice [4]; [10],improved
same,"TNR score (global score, maximal 7)","STOP deficient mice [4]; STOP KO mice, 4 mg/kg/week, rose from 1.16 without treatment, highly significant increase, FIG. 4",4.4
same,nest building score (0-2),STOP deficient mice [4]; [11],strongly improved
same,"paper use score (tissue use score, 0-2)",STOP deficient mice [4]; [11],strongly improved
same,pup retrieving score,STOP deficient mice [4]; [11],tended to improve
same,effect on nurturing-related behaviours,WT mice [5],no significant effect
same,increase of synaptic vesicle density relative to absence of treatment,"STOP KO mice [6]; CA1 hippocampal synapses, 4 mg/kg/week, p<0.001, FIG. 5",20%
same,increase of synaptic vesicle density,"STOP KO mice [6]; summary statement, dose not stated",about 20%
